Target: T1, human MCR1 receptor (Homo sapiens, UniProt Q01726)
T1 construct: expressed in transfected cells
Experiment: MCR1 standard functional assay (Protocol A): cAMP AlphaScreen in HEK cells
Assay type: cell-based
Settings: for EC50: Protocol A
Procedure: Stimulation of adenylate cyclase following receptor activation is a widely used measure of functional activity for a number of receptor systems. The functional assay to measure cyclic AMP (cAMP) utilises human embryonic kidney (HEK) cells that stably express the human melanocortin MCR1, MCR3 or MCR4 receptor. Activation of MCR1, MCR3 or MCR4 receptors stimulates adenylate cyclase, generating cAMP, which is measured using AlphaScreen™ (PerkinElmer assay kits.
The AlphaScreen™ cAMP assay kit consists of ‘donor beads’, ‘acceptor beads’, and biotinylated cAMP which links the different beads together. Excitation of this linked complex at […] in the Fusion™-α microplate analyser results in light emission between […].
(i) MCR1. MCR3 and MCR4 Standard Functional Assay Methodology [Assay Protocol A, B AND C Respectively]
Determination of activity against the human MCR1, MCR3 and MCR4 receptor subtypes was carried out for compounds according to the present invention using three immortalised human embryonic kidney (HEK) cell lines that had been biologically engineered to express the human melanocortin MCR1, MCR3 or MCR4 receptor subtypes. These cell lines were engineered using protocols akin to those outlined by Gouarderes et al (Gouarderes, C., (2002) Neuroscience, 115(2); 349-361).
Such-compound-induced activation of these MCR1, MCR3 or MCR4 receptors lead to the stimulation of the cellular enzyme adenylate cyclase, which in turn lead to the cellular generation, and intra-cellular accumulation, of cyclic adenosine monophosphate (cAMP). […] Intracellular levels of cAMP were quantified using the commercially available AlphaScreen™ assay kits from PerkinElmer. A detailed assay protocol and an explanation of the concept underlying this kit is available through the PerkinElmer website (www.perkinelmer.com). The protocol listed below provides a summary this information.
The quantity of intracellular cAMP produced by compound-induced activation of the MCR1, MCR3 and MCR4 receptors in these three cell lines was measured using a Fusion™-α microplate analyser set to stimulate at a wavelength of 680 nm and to measure the energy emitted at wave lengths between […]. Compound-induced increases in MCR1, MCR3 or MCR4 receptor activation were subsequently quantified as a decrease in the quantity of light emitted at wavelengths between […]. Data analysis was subsequently performed using a curve-fitting program and the apparent potency of the test compound (expressed as an EC50 and defined as the effective compound concentration that elicited 50% of the maximum compound-induced response) extrapolated from the fitted curve.
Stimulation buffer (as per AlphaScreen™ protocol): HBSS supplemented with 0.5 mM IBMX, 5 mM HEPES, 0.1% (w/v) BSA and 10 mM MgCl2.
Lysis buffer (as per AlphaScreen™ protocol): 5 mM HEPES solution supplemented with 0.1% (w/v) BSA and 0.3% (v/v) Tween-20.
Detection mix (as per AlphaScreen™ protocol): Lysis buffer supplemented with the biotinylated cAMP (10 nM) and Donor beads (10 μg/ml) as supplied in the AlphaScreenT cAMP assay kit.
For the MCR1, MCR3 and MCR4 standard functional assay methodologies compounds were initially dissolved in DMSO to give a compound concentration of 4 mM and then further diluted for the assay in stimulation buffer to give actual concentrations 2-fold greater than that desired as the final assay concentration.
The three HEK cell lines, as detailed hereinbefore, expressing the human MCR1, MCR3 or MCR4 receptor subtypes were grown in T225 vent cap flasks containing 50 ml of growth medium (DMEM supplemented with 10% (v/v) FCS, 2 mM L-Glutamine, 25 mM HEPES and 1.0 mg/ml Geneticin) and maintained in a cell incubator at a temperature of 37° C. and in an environment containing 5% CO2. Cells were harvested when they reached 80-90% confluency by first removing the existing growth medium and then washing with PBS that had been pre-warmed to a temperature of 37° C. […]

T1 sequence (Q01726 whole entry): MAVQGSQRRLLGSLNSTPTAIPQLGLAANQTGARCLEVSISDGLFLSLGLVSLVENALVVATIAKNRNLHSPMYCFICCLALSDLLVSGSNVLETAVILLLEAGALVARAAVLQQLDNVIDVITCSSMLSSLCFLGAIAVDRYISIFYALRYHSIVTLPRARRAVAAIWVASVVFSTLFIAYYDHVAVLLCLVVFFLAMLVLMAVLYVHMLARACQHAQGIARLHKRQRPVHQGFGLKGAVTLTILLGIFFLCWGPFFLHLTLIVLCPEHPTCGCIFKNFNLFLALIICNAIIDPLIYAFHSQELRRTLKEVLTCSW

SMILES	Selectivity MCR1/MCR4 (Table 5, MCR4 by Protocol C)	EC50 (Table 5)	Selectivity MCR1/MCR4 (Table 6, MCR4 by Protocol E)	EC50 (Table 6)
C[C@@H]1CN(C(=O)[C@@H]2CN(C(C)(C)C)C[C@H]2c2ccc(F)cc2F)C[C@H](C)[C@@]1(O)c1ccccc1 [Example 1, (3R,4R,5S)-1-{[(3S,4R)-1-tert-Butyl-4-(24-difluorophenyl)pyrrolidin-3-yl]carbonyl}-3,5-dimethyl-4-phenylpiperidin-4-ol]	324	8.1 µM	125	–
C[C@@H]1CN(C(=O)[C@@H]2CN(C(C)(C)C)C[C@H]2c2ccc(F)cc2F)C[C@H](C)[C@@]1(O)c1ccccc1.Cl [Example 5, (3R,4R,5S)-1-{[(3S,4R)-1-tert-Butyl-4-(2,4-difluorophenyl)pyrrolidin-3-yl]carbonyl}-3,5-dimethyl-4-phenylpiperidin-4-ol hydrochloride]	–	–	125	1.2 µM
CC(C)N1C[C@@H](C(=O)N2C[C@@H](C)[C@](O)(c3ccccc3)[C@@H](C)C2)[C@H](c2ccc(F)cc2F)C1.Cl [Example 6, (3R,4R,5S)-1-{[(3S,4R)-4-(2,4-Difluorophenyl)-1-isopropylpyrrolidin-3-yl]carbonyl}-3,5-dimethyl-4-phenylpiperidin-4-ol hydrochloride]	–	–	28	0.541 µM
C[C@@H]1CN(C(=O)[C@@H]2CNC[C@H]2c2ccc(F)cc2F)C[C@H](C)[C@@]1(O)c1ccc(F)cc1.Cl [Example 12, (3R,4R,5S)-1-{[(3S,4R)-4-(2,4-difluorophenyl)pyrrolidin-3-yl]carbonyl}-4-(4-fluorophenyl)-3,5-dimethylpiperidin-4-ol hydrochloride]	–	–	9	0.667 µM
C[C@@H]1CN(C(=O)[C@@H]2CN(C(C)(C)C)C[C@H]2c2ccc(F)cc2F)C[C@H](C)[C@@]1(O)c1ccc(Cl)cc1.Cl [Example 13, (3R,4R,5S)-1-{[(3S,4R)-1-tert-butyl-4-(2,4-difluorophenyl)pyrrolidin-3-yl]carbonyl}-4-(4-chlorophenyl)-3,5-dimethylpiperidin-4-ol hydrochloride]	–	–	311	8.4 µM
C[C@@H]1CN(C(=O)[C@@H]2CN(c3ccccn3)C[C@H]2c2ccc(F)cc2F)C[C@H](C)[C@@]1(O)c1ccccc1.Cl [Example 31, (3R,4R,5S)-1-{[(3S,4R)-4-(2,4-difluorophenyl)-1-pyridin-2-ylpyrrolidin-3-yl]carbonyl}-3,5-dimethyl-4-phenylpiperidin-4-ol hydrochloride]	–	–	2969	10.7 µM
C[C@@H]1CN(C(=O)[C@@H]2CN(c3cccnn3)C[C@H]2c2ccc(F)cc2F)C[C@H](C)[C@@]1(O)c1ccccc1.Cl [Example 35, (3R,4R,5S)-1-{[(3S,4R)-4-(2,4-difluorophenyl)-1-pyridazin-3-ylpyrrolidin-3-yl]carbonyl}-3,5-dimethyl-4-phenylpiperidin-4-ol hydrochloride]	–	–	847	1.27 µM

Reference: patent US7649002B2, “(3,5-dimethylpiperidin-1yl)(4-phenylpyrrolidin-3-yl)methanone derivatives as MCR4 agonists” (Pfizer Inc, priority 2004, dated 2010)
